Literature values in US20110086911A1, “NOVEL BISMUTH(III) NSAID COMPOUNDS AND METHODS FOR THEIR USE” (Monash University, priority 2009, published 2011).

System: H. pylori strains B128, 251 and 26695
Details: comparison values for substances not listed among those tested

Compound	MIC value [µg/mL]
colloidal bismuth subcitrate [CBS]	≥ 12.5
CNC(=C[N+](=O)[O-])NCCSCc1ccc(CN(C)C)o1.O=C([O-])CC(O)(CC(=O)[O-])C(=O)[O-].[Bi+3] [RBC, ranitidine bismuth citrate]	8
